Laboratory results from ChEMBL document CHEMBL1201862, “PubChem BioAssay data set” (2004).
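In this assay, cells in 96-well plates receive the compound at five concentrations for 48 hours. Endpoints are linearly interpolated between the surrounding concentrations. GI50 = concentration required for 50% inhibition of growth.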 Calls of active or inactive are those of the source. Rule as the data show it: active = GI50 up to about 1.1 µM and inactive = higher.

Experiments:
Assay in all cases: DTP human tumour cell line panel, 48 h
HCT-116 = system: HCT-116
OVCAR-8 = system: OVCAR-8
UACC-62 = system: UACC-62
SNB-78 = system: SNB-78
NCI-H226 = system: NCI-H226
SK-OV-3 = system: SK-OV-3
NCI-H23 = system: NCI-H23
786-0 = system: 786-0
RPMI-8226 = system: RPMI-8226
M14 = system: M14
SW-620 = system: SW-620
OVCAR-3 = system: OVCAR-3
K562 = system: K562
SF-539 = system: SF-539
HCC 2998 = system: HCC 2998
M19-MEL = system: M19-MEL
DMS-273 = system: DMS-273
SNB-19 = system: SNB-19
DMS-114 = system: DMS-114
HOP-92 = system: HOP-92
EKVX = system: EKVX
HCT-15 = system: HCT-15
CCRF-CEM = system: CCRF-CEM
HOP-62 = system: HOP-62
OVCAR-5 = system: OVCAR-5
NCI-H460 = system: NCI-H460
HT-29 = system: HT-29
ACHN = system: ACHN
CAKI-1 = system: CAKI-1
A498 = system: A498
SF-295 = system: SF-295
KM12 = system: KM12
UACC-257 = system: UACC-257
A549 = system: A549
SK-MEL-5 = system: SK-MEL-5
HL-60 = system: HL-60
COLO 205 = system: COLO 205
Malme-3M = system: Malme-3M
SN12C = system: SN12C
OVCAR-4 = system: OVCAR-4
LXFL 529 = system: LXFL 529
KM-20L2 = system: KM-20L2
SK-MEL-2 = system: SK-MEL-2
MOLT-4 = system: MOLT-4
UO-31 = system: UO-31
SNB-75 = system: SNB-75
NCI-H522 = system: NCI-H522
IGROV-1 = system: IGROV-1
HOP-18 = system: HOP-18
TK-10 = system: TK-10
DLD-1 = system: DLD-1
U-251 = system: U-251
SF-268 = system: SF-268
SK-MEL-28 = system: SK-MEL-28

`NCCN1C(=O)C2C3c4ccccc4C(c4ccccc43)C2C1=O` (centres undefined) was tested, and the GI50 (HCT-116) was > 100 µM (inactive), the GI50 (OVCAR-8) was > 100 µM (inactive) and the GI50 (UACC-62) was > 100 µM (inactive). For the same molecule, the GI50 (SNB-78) was > 100 µM (inactive), the GI50 (NCI-H226) was > 100 µM (inactive) and the GI50 (SK-OV-3) was > 100 µM (inactive). For the same molecule, the GI50 (NCI-H23) was > 100 µM (inactive), the GI50 (786-0) was > 100 µM (inactive) and the GI50 (RPMI-8226) was > 100 µM (inactive). For the same molecule, the GI50 (M14) was > 100 µM (inactive), the GI50 (SW-620) was > 100 µM (inactive) and the GI50 (OVCAR-3) was > 100 µM (inactive). The GI50 (K562) was > 100 µM (inactive), the GI50 (SF-539) was > 100 µM (inactive) and the GI50 (HCC 2998) was > 100 µM (inactive). For the same molecule, the GI50 (M19-MEL) was > 100 µM (inactive), the GI50 (DMS-273) was > 100 µM (inactive) and the GI50 (SNB-19) was > 100 µM (inactive). The GI50 (DMS-114) was > 100 µM (inactive), the GI50 (HOP-92) was 28.2 µM (inactive) and the GI50 (EKVX) was > 100 µM (inactive). For the same molecule, the GI50 (HCT-15) was > 100 µM, the GI50 (CCRF-CEM) was > 100 µM (inactive) and the GI50 (HOP-62) was > 100 µM (inactive). The GI50 (OVCAR-5) was > 100 µM (inactive), the GI50 (NCI-H460) was > 100 µM (inactive) and the GI50 (HT-29) was > 100 µM (inactive). The GI50 (ACHN) was > 100 µM (inactive), the GI50 (CAKI-1) was > 100 µM (inactive) and the GI50 (A498) was > 100 µM (inactive). For the same molecule, the GI50 (SF-295) was > 100 µM (inactive), the GI50 (KM12) was > 100 µM (inactive) and the GI50 (UACC-257) was > 100 µM (inactive). For the same molecule, the GI50 (A549) was > 100 µM (inactive), the GI50 (SK-MEL-5) was > 100 µM (inactive) and the GI50 (HL-60) was > 100 µM (inactive). The GI50 (COLO 205) was > 100 µM (inactive), the GI50 (Malme-3M) was > 100 µM (inactive) and the GI50 (SN12C) was > 100 µM (inactive). The GI50 (OVCAR-4) was > 100 µM (inactive), the GI50 (LXFL 529) was > 100 µM (inactive) and the GI50 (KM-20L2) was > 100 µM (inactive). For the same molecule, the GI50 (SK-MEL-2) was > 100 µM (inactive), the GI50 (MOLT-4) was > 100 µM (inactive) and the GI50 (UO-31) was > 100 µM (inactive). The GI50 (SNB-75) was 43.3 µM (inactive), the GI50 (NCI-H522) was > 100 µM (inactive) and the GI50 (IGROV-1) was > 100 µM (inactive). For the same molecule, the GI50 (HOP-18) was > 100 µM (inactive), the GI50 (TK-10) was > 100 µM (inactive) and the GI50 (DLD-1) was > 100 µM (inactive). The GI50 (U-251) was > 100 µM (inactive), the GI50 (SF-268) was > 100 µM (inactive) and the GI50 (SK-MEL-28) was > 100 µM (inactive).
